Measurements as given in ChEMBL document CHEMBL4619712, “Double-component diazeniumdiolate derivatives as anti-cancer agents” (Bioorg Med Chem, 2020).

Assays:
Format in all cases: functional, cell-based
[1] = test system: BT-474; test: Anticancer activity against human BT474 cells assessed as inhibition of cell growth after 72 hrs by MTT or MTS assay; settings: BT-474, 72 h
[2] = test system: A549; test: Anticancer activity against human A549 cells assessed as inhibition of cell growth after 72 hrs by MTT or MTS assay; settings: A549, 72 h
[3] = test system: Jurkat E6.1; test: Anticancer activity against human Jurkat E6-1 cells assessed as inhibition of cell growth after 72 hrs by MTT or MTS assay; settings: Jurkat E6.1, 72 h
[4] = test system: CCRF-CEM; test: Anticancer activity against human CCRF-CEM cells assessed as inhibition of cell growth after 72 hrs by MTT or MTS assay
[5] = test system: MDA-MB-231; test: Anticancer activity against human MDA-MB-231 cells assessed as inhibition of cell growth after 72 hrs by MTT or MTS assay; settings: MDA-MB-231, 72 h

Structure (SMILES): CCOC(=O)N1CCN(/[N+]([O-])=N/Oc2ccc([N+](=O)[O-])cc2[N+](=O)[O-])CC1
- IC50 [1]: 3.66 µM
- IC50 [2]: 2.11 µM
- IC50 [3]: 0.92 µM
- IC50 [4]: 0.89 µM
- IC50 [5]: 7.93 µM
